Data as given in patent US6166051A, “Thiol derivatives with metallopeptidase (ACE/NEP) inhibitory activity” (Zambon Group S.p.A., priority 1995, dated 2000).

Tests used:
[1] = target: T1, NEP (neutral endopeptidase enzyme) (Rattus norvegicus, UniProt P07861); test: NEP-inhibitory activity in rat kidney cortex membranes ([3H][Leu5]-enkephaline degradation); type: biochemical; details: in vitro, [3H][Leu5]-enkephaline 15 nM, 20 minutes at 30° C., pH 7.4
T1 construct: from tissue; host or cells: kidney cortex membranes of male Sprague-Dawley rats
T1 sequence (P07861 1-750): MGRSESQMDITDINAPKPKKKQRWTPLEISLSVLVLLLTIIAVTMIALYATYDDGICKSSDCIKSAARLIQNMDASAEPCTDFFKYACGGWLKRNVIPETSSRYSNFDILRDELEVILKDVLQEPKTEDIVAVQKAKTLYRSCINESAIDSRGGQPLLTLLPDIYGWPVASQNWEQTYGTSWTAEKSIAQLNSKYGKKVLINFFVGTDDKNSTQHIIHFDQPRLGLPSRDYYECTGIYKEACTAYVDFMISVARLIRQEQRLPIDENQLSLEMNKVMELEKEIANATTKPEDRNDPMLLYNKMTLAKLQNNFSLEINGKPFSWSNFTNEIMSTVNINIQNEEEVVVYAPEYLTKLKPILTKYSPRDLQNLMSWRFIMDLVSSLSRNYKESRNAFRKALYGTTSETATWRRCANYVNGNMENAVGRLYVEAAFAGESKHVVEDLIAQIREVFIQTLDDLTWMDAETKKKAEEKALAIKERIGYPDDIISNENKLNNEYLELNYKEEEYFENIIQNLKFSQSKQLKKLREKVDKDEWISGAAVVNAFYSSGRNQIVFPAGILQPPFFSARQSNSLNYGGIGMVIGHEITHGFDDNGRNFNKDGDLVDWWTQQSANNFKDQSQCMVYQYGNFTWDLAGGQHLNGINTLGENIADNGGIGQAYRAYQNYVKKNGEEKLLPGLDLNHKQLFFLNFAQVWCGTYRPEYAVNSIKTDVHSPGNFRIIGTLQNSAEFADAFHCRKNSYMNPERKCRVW
Experimental: a) NEP-inhibitory Activity
The NEP-inhibitory activity was evaluated in rat kidney cortex membranes prepared according to the procedure described by T. Maeda et al. in Biochim Biophys. Acta 1983, 731(1), 115-120.
Kidneys were removed from male Sprague-Dawley rats weighing approximately 300 g and kept at 4° C.
Kidney cortex was carefully removed, finely minced and suspended into a homogenization buffer (10 mM sodium phosphate pH 7.4 containing 1 mM MgCl2, 30 mM NaCl, 0.02% NaN3) 1:15 weight/volume.
The tissue was then cold homogenized for 30 seconds using an Ultra-Turrax homogenizer.
Approximately 10 ml of homogenate were layered over 10 ml of sucrose (41% weight/volume) and centrifuged at 31200 rpm for 30 minutes at 4° C. in a fixed angle rotor.
The membranes were collected from the buffer/sucrose interface, washed twice with 50 mM TRIS/HCl buffer (pH 7.4) and resuspended into the same buffer for the storage of aliquots at -80° C. until use.
The NEP-inhibitory activity was evaluated according to the method described by C. Llorens et aL, in Eur. J. Pharmacol., 69, (1981), 113-116, as reported hereinafter.
Aliquots of the membrane suspension prepared as above described (concentration 5 μg/ml of proteins) were preincubated in the presence of an aminopeptidase inhibitor (Bestatin--1 mM) for 10 minutes at 30° C. [^3 H][Leu^5 ]-enkephaline (15 nM) and buffer TRIS/HCl pH 7.4 (50 mM) were added in order to obtain a final volume of 100 μl.
The enzymatic reaction was stopped by adding HCl 0.1M (100 μl) after 20 minutes of incubation at 30° C.
The formation of the metabolite [^3 H]Tyr-Gly-Gly was quantified, after separation of the unreacted substrate by chromatography on polystyrene columns (Porapak Q), by measuring the relative radioactivity through liquid scintillation.
The percentage of inhibition of the metabolite formation in the membrane preparations treated with the compounds of formula I and with the comparative compounds with respect to the untreated membrane preparations was expressed as IC50 (nM) value.

[2] = target: T2, ACE (angiotensin converting enzyme) (Oryctolagus cuniculus, UniProt P12822); test: ACE-inhibitory activity (FAPGG substrate, absorbance at 340 nm); type: biochemical; details: in vitro, ACE purified from rabbit lung, 37° C.
T2 construct: purchased SIGMA; host or cells: rabbit lung
T2 sequence (P12822 34-1310): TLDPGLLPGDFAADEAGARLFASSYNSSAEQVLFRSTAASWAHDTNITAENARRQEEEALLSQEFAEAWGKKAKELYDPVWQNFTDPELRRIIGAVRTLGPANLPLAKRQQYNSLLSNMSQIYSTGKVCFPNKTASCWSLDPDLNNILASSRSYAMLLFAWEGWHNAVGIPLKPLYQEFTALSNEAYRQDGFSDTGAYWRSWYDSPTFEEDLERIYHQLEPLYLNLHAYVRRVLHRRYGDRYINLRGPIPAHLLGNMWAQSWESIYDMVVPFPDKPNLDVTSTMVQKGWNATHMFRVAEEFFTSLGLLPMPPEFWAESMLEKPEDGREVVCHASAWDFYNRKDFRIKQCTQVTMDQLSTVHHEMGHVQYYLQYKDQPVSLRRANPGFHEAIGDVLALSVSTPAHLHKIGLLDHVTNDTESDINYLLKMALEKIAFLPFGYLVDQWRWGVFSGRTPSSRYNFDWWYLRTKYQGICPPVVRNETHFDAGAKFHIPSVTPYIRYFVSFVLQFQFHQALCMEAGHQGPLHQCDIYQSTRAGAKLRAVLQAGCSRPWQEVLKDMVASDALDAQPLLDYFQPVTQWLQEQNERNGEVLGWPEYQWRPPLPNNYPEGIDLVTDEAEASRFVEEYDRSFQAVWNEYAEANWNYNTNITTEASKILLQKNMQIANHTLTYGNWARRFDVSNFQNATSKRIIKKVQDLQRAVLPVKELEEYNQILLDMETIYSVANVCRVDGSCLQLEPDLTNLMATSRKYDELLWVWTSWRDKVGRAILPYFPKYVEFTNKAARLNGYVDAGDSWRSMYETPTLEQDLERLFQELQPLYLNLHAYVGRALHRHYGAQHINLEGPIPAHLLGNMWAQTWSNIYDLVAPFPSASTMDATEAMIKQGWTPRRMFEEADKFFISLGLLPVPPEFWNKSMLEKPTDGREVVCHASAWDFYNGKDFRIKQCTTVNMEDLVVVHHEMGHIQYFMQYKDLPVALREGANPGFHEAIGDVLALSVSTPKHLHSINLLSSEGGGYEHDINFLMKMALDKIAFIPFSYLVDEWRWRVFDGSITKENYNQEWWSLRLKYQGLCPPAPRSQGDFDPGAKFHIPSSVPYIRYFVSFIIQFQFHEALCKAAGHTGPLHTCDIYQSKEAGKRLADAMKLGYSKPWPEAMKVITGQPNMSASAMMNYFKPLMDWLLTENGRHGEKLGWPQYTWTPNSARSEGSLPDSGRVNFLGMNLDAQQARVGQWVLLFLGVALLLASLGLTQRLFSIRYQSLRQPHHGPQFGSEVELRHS
Experimental: b) ACE-inhibitory Activity
50 μM of ACE (250 μmU/ml purified by lung rabbit, EC 3.4.15.1 SIGMA) were preincubated with 50 μl of the compound of formula I or of the comparison compound or related vehicle in thermostated cuvettes at 37° C.
The reaction was started by adding 500 μl of furylacryloylphenylalanylglycylglycine 0.8 mM (FAPGG-SIGMA).
Contemporaneously, by using a Beckman DU-50 spectrophotometer provided with a program for calculating delta A/minutes and regression coefficients of the enzyme kinetics curyes, the absorbance at 340 nm was recorded in continuo for 5 minutes.
The percentage of inhibition in the preparations incubated with the compounds of formula I or with the comparative compounds with respect to the preparations incubated with the vehicle was expressed as IC50 (nM) value.

| Structure (SMILES) | NEP-inhibitory activity IC50 (nM) [1] | IC50 [1] [nM] | IC50 [2] [nM] |
| --- | --- | --- | --- |
| C[C@H](CS)C(=O)N1CCC[C@H]1C(=O)O [Captopril, reference compound] | not active |  |  |
| O=C(N[C@@H](Cc1cscn1)C(=O)O)C(CS)Cc1ccccc1 (stereo partly drawn) [compound 4, N-(2-phenylmethyl-3-mercaptopropionyl)-(4-thiazolyl)-L-alanine] |  | 4.7 | 12 |
| O=C(N[C@@H](Cc1cccs1)C(=O)O)C(CS)Cc1ccccc1 (stereo partly drawn) [compound 5, N-(2-phenylmethyl-3-mercaptopropionyl)-(2-thienyl)-L-alanine] |  | 5.5 | 6.5 |
| O=C(N[C@@H](Cc1ccccn1)C(=O)O)C(CS)Cc1ccccc1 (stereo partly drawn) [compound 6, N-(^2-phenylmethyl-3-mercaptopropionyl)-(2-pyridyl)-L-alanine] |  | 7.1 | 23 |
